Tested on: LG0703-F498-PDC complex spheroid growth
Test: Anticancer human tumor LG0703-F498-PDC patient-derived lung adenocarcinoma cell line growth inhibition [AhR]
Conditions: for IC50: curve of first compound; for viability, T/C: stronger effect = lower value
Text: Multicellular complex tumor spheroid response to aryl hydrocarbon receptor antagonists in combination with a variety of drugs and investigational agents in selected tumor cell lines
The current study was undertaken to assess response to aryl hydrocarbon receptor antagonists in combination with standard-of-care drugs and investigational agents in solid tumor complex spheroid models. Complex spheroids include a stromal component modeled by human endothelial cells (HUVEC) and fibroblasts modeled by human mesenchymal stem cells (MSCs). The concentration ranges selected for each drug and investigational agent were based upon clinically achievable concentrations if the clinical Cmax of the agent was known.
Compounds. The drugs and investigational agents: BAY 2416964 (NSC825713), GNF351 (NSC835774), CH-223191 (NSC835775), CPI-455 (NSC825282), aza-TdCyd (NSC777586), decitabine (NSC127716), belinostat (NSC758774), entinostat (NSC756642), pevonedistat (NSC761192), tazemetostat (NSC777109), talazoparib (NSC765396), olaparib (NSC753686), selinexor (NSC780203), nedisertib (M3814, NSC802822), bortezomib (NSC756655), venetoclax (NSC766270), doxorubicin (NSC123127), elimusertib (BAY189344, NSC800525), ceralasertib (AZD6738, NSC777638), TAK-243 (NSC785004), alisertib (NSC759677), etoposide (NSC141540), topotecan (NSC609699), eribulin (NSC707389), gemcitabine (NSC613327), carboplatin (NSC241240), cisplatin (NSC119875), and SN-38 (NSC673596) were obtained from the National Cancer Institute (NCI) Developmental Therapeutics Program Chemical Repository (32). The FDA-approved anticancer drug set is available from the Developmental Therapeutics Program at https://dtp.cancer.gov/organization/dscb/obtaining/available plates.htm. […] The stock solutions were prepared in dimethyl sulfoxide (DMSO, Sigma-Aldrich, St. Louis, MO, cat. D2650), except for the platinum compounds which were prepared in saline (Quality Biological, Gaithersburg, MD, cat. 114-055-101), at 800-fold the tested concentration and stored at -70 degrees C prior to their use. All drugs and investigational agents were tested over a range starting from a high concentration at or near the clinical Cmax and decreasing in half-log increments. If the clinical Cmax for an agent had not been determined, the highest concentration tested was 10 microM (Table 1).
Cell Culture. All cells were maintained in an incubator at 37 degrees C and 5% CO2 with 95% humidity. The PDC lines were cultured according to standard operating procedures established by the NCI PDMR (https://pdmr.cancer.gov). Briefly, all PDCs were thawed and cultured in Matrigel-coated flasks prepared with a working solution of 1X Ham's F-12 nutrient mix, without supplementation (Invitrogen, Waltham, MA, cat. 11765054), 100 U/mL penicillin-streptomycin (Invitrogen, cat. 15140122), and 2.5% Matrigel (Corning Inc., Corning, NY, cat. 354248) for the first three passages. All PDCs were cultured in complete DMEM/F-12 media containing advanced DMEM/F-12 (Invitrogen, cat. 12634028), 4.9% defined fetal bovine serum, heat inactivated (HyClone Laboratories Inc., Logan, UT, cat. SH30070.03HI), 389 ng/mL hydrocortisone (Sigma-Aldrich, cat. H4001), 9.7 ng/mL human EGF recombinant protein (Invitrogen, cat. PHG0313), 23.4 microg/mL adenine (Sigma-Aldrich, cat. A2786), 97.3 U/mL penicillin-streptomycin (Invitrogen, cat. 15140122), 1.9 mM L-glutamine (Invitrogen, cat. 25030081), and 9.7 microM Y-27632 dihydrochloride (Tocris Bioscience, Bristol, United Kingdom, cat. 1254). The PDCs were cultured in complete DMEM/F12 media without 10 microM Y-27632 dihydrochloride for at least two passages prior to the screen. The established cell lines NCI-H1341 and […] were cultured in DMEM/F-12, HEPES (Invitrogen, cat. 11330032), 5% defined fetal bovine serum (HyClone Laboratories Inc., cat. SH30070.03), ITS premix universal culture supplement [insulin (5 microg/mL), transferrin (5 microg/mL), and selenious acid (5 ng/mL)] […]

[1] = second compound 0.1 µM, first compound 0.0316 µM
[2] = second compound 0.1 µM, first compound 0.1 µM
[3] = second compound 0.1 µM, first compound 0.316 µM
[4] = second compound 0.1 µM, first compound 1 µM
[5] = second compound 0.1 µM, first compound 3.16 µM
[6] = second compound 0.1 µM, first compound 10 µM
[7] = second compound 0.316 µM, first compound 0.0316 µM
[8] = second compound 0.316 µM, first compound 0.1 µM
[9] = second compound 0.316 µM, first compound 0.316 µM
[10] = second compound 0.316 µM, first compound 1 µM
[11] = second compound 0.316 µM, first compound 3.16 µM
[12] = second compound 0.316 µM, first compound 10 µM
[13] = second compound 1 µM, first compound 0.0316 µM
[14] = second compound 1 µM, first compound 0.1 µM
[15] = second compound 1 µM, first compound 0.316 µM
[16] = second compound 1 µM, first compound 1 µM
[17] = second compound 1 µM, first compound 3.16 µM
[18] = second compound 1 µM, first compound 10 µM
[19] = second compound 3.16 µM, first compound 0.0316 µM
[20] = second compound 3.16 µM, first compound 0.1 µM
[21] = second compound 3.16 µM, first compound 0.316 µM
[22] = second compound 3.16 µM, first compound 1 µM
[23] = second compound 3.16 µM, first compound 3.16 µM
[24] = second compound 3.16 µM, first compound 10 µM
[25] = second compound 10 µM, first compound 0.0316 µM
[26] = second compound 10 µM, first compound 0.1 µM
[27] = second compound 10 µM, first compound 0.316 µM
[28] = second compound 10 µM, first compound 1 µM
[29] = second compound 10 µM, first compound 3.16 µM
[30] = second compound 10 µM, first compound 10 µM
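Further: luminescence taken as a proxy for viable cell amount.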
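Wherever viability, T/C is given: percent of DMSO vehicle control where 100% means growth equal to vehicle.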

CC(C)CC(NC(=O)C(Cc1ccccc1)NC(=O)c1cnccn1)B(O)O (stereo not given) + CC(CO)NC(=O)c1cc(-c2ccc(Cl)cc2)nn(-c2cnn(C)c2)c1=O
IC50 (second compound 0.1 µM): 2.38 nM
IC50 (second compound 0.316 µM): 2.52 nM
IC50 (second compound 1 µM): 2.12 nM
IC50 (second compound 3.16 µM): 2.09 nM
IC50 (second compound 10 µM): 1.88 nM
viability, T/C (second compound 0.1 µM, first compound 0.000949 µM): 76.8%
viability, T/C (second compound 0.1 µM, first compound 0.003 µM): 43.2%
viability, T/C (second compound 0.1 µM, first compound 0.00949 µM): 1.95%
viability, T/C (second compound 0.1 µM, first compound 0.03 µM): 0.49%
viability, T/C (second compound 0.1 µM, first compound 0.0949 µM): 0.12%
viability, T/C (second compound 0.1 µM, first compound 0.3 µM): 0.2%
viability, T/C (second compound 0.316 µM, first compound 0.000949 µM): 80%
viability, T/C (second compound 0.316 µM, first compound 0.003 µM): 44.7%
viability, T/C (second compound 0.316 µM, first compound 0.00949 µM): 3.04%
viability, T/C (second compound 0.316 µM, first compound 0.03 µM): 0.34%
viability, T/C (second compound 0.316 µM, first compound 0.0949 µM): 0.17%
viability, T/C (second compound 0.316 µM, first compound 0.3 µM): 0.17%
viability, T/C (second compound 1 µM, first compound 0.000949 µM): 75.9%
viability, T/C (second compound 1 µM, first compound 0.003 µM): 38.8%
viability, T/C (second compound 1 µM, first compound 0.00949 µM): 2.08%
viability, T/C (second compound 1 µM, first compound 0.03 µM): 0.36%
viability, T/C (second compound 1 µM, first compound 0.0949 µM): 1.04%
viability, T/C (second compound 1 µM, first compound 0.3 µM): 0.16%
viability, T/C (second compound 3.16 µM, first compound 0.000949 µM): 78%
viability, T/C (second compound 3.16 µM, first compound 0.003 µM): 37.3%
viability, T/C (second compound 3.16 µM, first compound 0.00949 µM): 1.6%
viability, T/C (second compound 3.16 µM, first compound 0.03 µM): 0.13%
viability, T/C (second compound 3.16 µM, first compound 0.0949 µM): 0.63%
viability, T/C (second compound 3.16 µM, first compound 0.3 µM): 1.52%
viability, T/C (second compound 10 µM, first compound 0.000949 µM): 71.2%
viability, T/C (second compound 10 µM, first compound 0.003 µM): 35.5%
viability, T/C (second compound 10 µM, first compound 0.00949 µM): 1.37%
viability, T/C (second compound 10 µM, first compound 0.03 µM): 0.23%
viability, T/C (second compound 10 µM, first compound 0.0949 µM): 0.25%
viability, T/C (second compound 10 µM, first compound 0.3 µM): 0.21%

Nc1ccccc1NC(=O)c1ccc(CNC(=O)OCc2cccnc2)cc1 + CC(CO)NC(=O)c1cc(-c2ccc(Cl)cc2)nn(-c2cnn(C)c2)c1=O
IC50 (second compound 0.1 µM): 401 nM
IC50 (second compound 0.316 µM): 428 nM
IC50 (second compound 1 µM): 461 nM
IC50 (second compound 3.16 µM): 413 nM
IC50 (second compound 10 µM): 335 nM
viability, T/C [1]: 82.4%
viability, T/C [2]: 86.8%
viability, T/C [3]: 56.2%
viability, T/C [4]: 19.3%
viability, T/C [5]: 2.71%
viability, T/C [6]: 0.45%
viability, T/C [7]: 72.8%
viability, T/C [8]: 71.6%
viability, T/C [9]: 59.7%
viability, T/C [10]: 22.6%
viability, T/C [11]: 2.65%
viability, T/C [12]: 0.63%
viability, T/C [13]: 77.8%
viability, T/C [14]: 79.9%
viability, T/C [15]: 64.5%
viability, T/C [16]: 19.6%
viability, T/C [17]: 3.74%
viability, T/C [18]: 0.67%
viability, T/C [19]: 74.3%
viability, T/C [20]: 71.6%
viability, T/C [21]: 59.3%
viability, T/C [22]: 19.7%
viability, T/C [23]: 2.42%
viability, T/C [24]: 0.89%
viability, T/C [25]: 70.4%
viability, T/C [26]: 77%
viability, T/C [27]: 48.1%
viability, T/C [28]: 21.8%
viability, T/C [29]: 3.12%
viability, T/C [30]: 1.17%

O=C(C=Cc1cccc(S(=O)(=O)Nc2ccccc2)c1)NO + CC(CO)NC(=O)c1cc(-c2ccc(Cl)cc2)nn(-c2cnn(C)c2)c1=O
IC50 (second compound 0.1 µM): 607 nM
IC50 (second compound 0.316 µM): 636 nM
IC50 (second compound 1 µM): 667 nM
IC50 (second compound 3.16 µM): 690 nM
IC50 (second compound 10 µM): 727 nM
viability, T/C [1]: 106%
viability, T/C [2]: 112%
viability, T/C [3]: 77.3%
viability, T/C [4]: 28.5%
viability, T/C [5]: 7%
viability, T/C [6]: 1.6%
viability, T/C [7]: 105%
viability, T/C [8]: 101%
viability, T/C [9]: 77%
viability, T/C [10]: 32.4%
viability, T/C [11]: 7.34%
viability, T/C [12]: 1.04%
viability, T/C [13]: 102%
viability, T/C [14]: 106%
viability, T/C [15]: 77.8%
viability, T/C [16]: 34.6%
viability, T/C [17]: 8.18%
viability, T/C [18]: 1.73%
viability, T/C [19]: 105%
viability, T/C [20]: 108%
viability, T/C [21]: 74.4%
viability, T/C [22]: 39%
viability, T/C [23]: 7.73%
viability, T/C [24]: 1.63%
viability, T/C [25]: 101%
viability, T/C [26]: 121%
viability, T/C [27]: 81.8%
viability, T/C [28]: 37.6%
viability, T/C [29]: 8.76%
viability, T/C [30]: 1.23%

From PubChem BioAssay AID1919013 (Molecular Pharmacology Branch, DTP, NCI, 2023)
